Experimental findings from ChEMBL document CHEMBL3232827, “Synthesis of substituted pyrimidines as corticotropin releasing factor (CRF) receptor ligands” (Eur J Med Chem, 2014) are described below.

What all share (assay type): cell membranes
For test [1], the target named is T1, Corticotropin-releasing factor receptor 1 (Homo sapiens) (UniProt P34998).
T1 sequence (whole entry): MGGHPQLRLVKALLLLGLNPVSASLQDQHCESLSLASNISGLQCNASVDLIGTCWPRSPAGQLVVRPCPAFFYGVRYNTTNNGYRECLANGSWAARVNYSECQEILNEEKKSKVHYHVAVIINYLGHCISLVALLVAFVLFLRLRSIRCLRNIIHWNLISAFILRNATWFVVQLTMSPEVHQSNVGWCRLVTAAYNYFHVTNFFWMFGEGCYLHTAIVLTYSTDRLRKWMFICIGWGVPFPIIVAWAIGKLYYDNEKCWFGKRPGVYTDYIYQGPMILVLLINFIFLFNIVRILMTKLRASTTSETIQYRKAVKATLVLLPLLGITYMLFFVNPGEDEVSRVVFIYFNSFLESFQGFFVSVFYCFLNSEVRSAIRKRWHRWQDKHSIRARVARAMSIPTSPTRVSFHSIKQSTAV
Kind of test: Displacement of [125I]Tyr0sauvagine from human CRF1 receptor expressed in HEK293 cell membrane at 500 nM after 120 mins by gamma scintillation counting analysis. In general terms: Loss of bound radioactivity is the signal in a displacement assay; it reports binding, not function.

In test [2] the target is T1, Corticotropin-releasing factor receptor 1 (Homo sapiens). Briefly: (§1) Displacement of [125I]Tyr0sauvagine from human CRF1 receptor expressed in HEK293 cell membrane after 120 mins by gamma scintillation counting analysis.
The target of test [3] is T2, Corticotropin-releasing factor receptor 1 (Homo sapiens, UniProt P34998).
T2 sequence (P34998 whole entry): T1 sequence (whole entry)
Described as §1.

In general, inhibition refers to the share of the control response that was lost under treatment. With `CCCN(CC1CC1)c1nc(C)nc(Nc2c(C)cc(C)cc2C)c1SC`, the inhibition in test [1] is less than 50%.
For orientation: IC50 means the point on the concentration scale where inhibition reaches its midpoint. High values mean a need for much substance, low ones inhibition by little substance. For the compound `CCCN(CCC)c1nc(C)nc(Nc2c(C)cc(C)cc2C)c1SCC`, the inhibition result in test [2] is “Dose-dependent effect”. The compound further gave an IC50 in test [3] of 537 nM.
Regarding `COCCN(CCOC)c1nc(C)nc(Nc2c(C)cc(C)cc2C)c1SC`, the inhibition entry in test [2] is “Dose-dependent effect”. The IC50 in test [3] was 275 nM.
Compound `CCCN(CCC)c1nc(C)nc(Nc2ccc(C(C)C)cc2Br)c1SC` returned an inhibition in test [1] of less than 50%.
On the same count and under the same terms, then `CCSc1c(Nc2c(C)cc(C)cc2C)ncnc1N(CC)CC`, with less than 50%.
Same read-out and setting: under `CCCN(CC1CC1)c1nc(C)nc(Nc2ccc(C(C)C)cc2Br)c1SC` stands less than 50%.
In turn, `CCCCN(CC)c1nc(C)nc2c1c(C)c(C)n2-c1c(C)cc(C)cc1C` [ANTALARMIN] gave an IC50 in test [3] of 18.6 nM.
As for `CCCCN(CC)c1ncnc(Nc2c(C)cc(C)cc2C)c1SCC`, the inhibition in test [1] was less than 50%.
For the compound `COCCN(CCOC)c1nc(C)nc(Nc2ccc(C(C)C)cc2Br)c1SC`, the inhibition in test [1] is less than 50%.
The same measure, in the same setting: under `CCCCN(CC)c1nc(C)nc(Nc2c(C)cc(C)cc2C)c1SC` stands less than 50%.
Same read-out and setting: then `CCCN(CCC)c1ncnc(Nc2c(C)cc(C)cc2C)c1SCC`, with less than 50%; and `CCCN(CC1CC1)c1ncnc(Nc2c(C)cc(C)cc2C)c1SC`, with less than 50%.
Same read-out and setting: then `CCCCN(CC)c1nc(C)nc(Nc2ccc(C(C)C)cc2Br)c1SC`, with less than 50%; and `CCCN(CCC)c1nc(C)nc(Nc2ccc(C(C)C)cc2Br)c1SCC`, with less than 50%.
In the case of `CCSc1c(Nc2c(C)cc(C)cc2C)nc(C)nc1N(CCOC)CCOC`, the inhibition result in test [2] is “Dose-dependent effect”. Further, the IC50 in test [3] is 589 nM.
In test [1], `CCCCN(CC)c1nc(C)nc(Nc2ccc(C(C)C)cc2Br)c1SCC` returned an inhibition of less than 50%.
Still for that read-out and setting: then `CCSc1c(Nc2c(C)cc(C)cc2C)ncnc1N(CCOC)CCOC`, with less than 50%.
As for `CCCN(CC1CC1)c1nc(C)nc(Nc2c(C)cc(C)cc2C)c1SCC`, the inhibition entry in test [2] is “Dose-dependent effect”. The compound further had an IC50 in test [3] of 245 nM.
The compound `CCCN(CCC)c1ncnc(Nc2c(C)cc(C)cc2C)c1SC` returned an inhibition in test [1] of less than 50%.
Still for that read-out and setting: under `CCSc1c(Nc2ccc(C(C)C)cc2Br)nc(C)nc1N(CCOC)CCOC` stands less than 50%.
Still for that read-out and setting: under `CCCN(CC1CC1)c1nc(C)nc(Nc2ccc(C(C)C)cc2Br)c1SCC` stands less than 50%; under `COCCN(CCOC)c1ncnc(Nc2c(C)cc(C)cc2C)c1SC`, less than 50%; under `CCSc1c(Nc2ccc(C(C)C)cc2Br)nc(C)nc1N(CC)CC`, less than 50%.
As for `CCN(CC)c1nc(C)nc(Nc2c(C)cc(C)cc2C)c1SC`, the inhibition in test [1] was less than 50%.
Same read-out and setting: then `CCCN(CCC)c1nc(C)nc(Nc2c(C)cc(C)cc2C)c1SC`, with less than 50%; and `CCSc1c(Nc2c(C)cc(C)cc2C)nc(C)nc1N(CC)CC`, with less than 50%; and `CCN(CC)c1nc(C)nc(Nc2ccc(C(C)C)cc2Br)c1SC`, with less than 50%.
As to `CCCCN(CC)c1nc(C)nc(Nc2c(C)cc(C)cc2C)c1SCC`, the inhibition in test [1] was less than 50%.
Same read-out and setting: under `CCCCN(CC)c1ncnc(Nc2c(C)cc(C)cc2C)c1SC` stands less than 50%.
